For test [1], the target named is T1, 5-hydroxytryptamine receptor 2C (Homo sapiens, UniProt P28335).
T1 sequence (P28335 whole entry): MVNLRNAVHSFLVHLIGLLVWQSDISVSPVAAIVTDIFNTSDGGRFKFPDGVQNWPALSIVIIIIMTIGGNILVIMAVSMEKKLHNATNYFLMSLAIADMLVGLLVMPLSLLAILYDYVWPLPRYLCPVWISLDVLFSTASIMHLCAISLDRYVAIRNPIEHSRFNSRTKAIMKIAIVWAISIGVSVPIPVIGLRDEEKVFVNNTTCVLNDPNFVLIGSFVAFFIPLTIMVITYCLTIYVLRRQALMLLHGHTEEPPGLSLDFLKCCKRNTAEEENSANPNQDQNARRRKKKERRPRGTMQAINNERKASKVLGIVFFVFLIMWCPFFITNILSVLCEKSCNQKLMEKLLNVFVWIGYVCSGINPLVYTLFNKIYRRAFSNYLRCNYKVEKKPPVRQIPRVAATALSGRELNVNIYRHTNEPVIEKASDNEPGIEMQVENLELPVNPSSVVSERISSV
The experiment in a line: Binding affinity toward 5-HT2C receptor evaluated by displacement of [3H]5-HT radioligand. A general note: Loss of bound radioactivity is the signal in a displacement assay; it reports binding, not function.

Test [2] concerns the target 5-hydroxytryptamine receptor 2A (Homo sapiens, UniProt P28223). The experiment in a line: Binding affinity toward 5-HT2A receptor evaluated by displacement of [125I]DOI radioligand.
Test [3] addresses T2, 5-hydroxytryptamine receptor 2C (Homo sapiens) (UniProt P28335).
T2 sequence (whole entry): T1 sequence (P28335 whole entry)
The experiment in a line: Relative efficacy toward 5-HT2C receptor.

In test [4] the target is 5-hydroxytryptamine receptor 2B (Homo sapiens, UniProt P41595). The experiment in a line: Binding affinity toward 5-HT2B receptor evaluated by displacement of [3H]5-HT radioligand.
Sequence of 5-hydroxytryptamine receptor 2B (P41595 whole entry): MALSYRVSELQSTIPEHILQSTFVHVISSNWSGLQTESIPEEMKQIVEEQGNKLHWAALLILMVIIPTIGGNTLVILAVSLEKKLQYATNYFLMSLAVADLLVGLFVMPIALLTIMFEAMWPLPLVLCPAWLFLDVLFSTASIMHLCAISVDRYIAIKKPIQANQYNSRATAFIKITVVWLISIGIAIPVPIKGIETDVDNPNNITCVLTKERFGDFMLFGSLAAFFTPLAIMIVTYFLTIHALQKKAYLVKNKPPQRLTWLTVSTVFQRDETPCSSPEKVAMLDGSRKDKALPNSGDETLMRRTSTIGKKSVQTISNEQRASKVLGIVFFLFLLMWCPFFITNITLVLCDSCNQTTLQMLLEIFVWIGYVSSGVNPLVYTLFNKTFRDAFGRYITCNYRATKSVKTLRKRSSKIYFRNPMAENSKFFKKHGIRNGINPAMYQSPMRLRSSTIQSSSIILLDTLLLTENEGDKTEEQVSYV

Sequence of 5-hydroxytryptamine receptor 2A (P28223 whole entry): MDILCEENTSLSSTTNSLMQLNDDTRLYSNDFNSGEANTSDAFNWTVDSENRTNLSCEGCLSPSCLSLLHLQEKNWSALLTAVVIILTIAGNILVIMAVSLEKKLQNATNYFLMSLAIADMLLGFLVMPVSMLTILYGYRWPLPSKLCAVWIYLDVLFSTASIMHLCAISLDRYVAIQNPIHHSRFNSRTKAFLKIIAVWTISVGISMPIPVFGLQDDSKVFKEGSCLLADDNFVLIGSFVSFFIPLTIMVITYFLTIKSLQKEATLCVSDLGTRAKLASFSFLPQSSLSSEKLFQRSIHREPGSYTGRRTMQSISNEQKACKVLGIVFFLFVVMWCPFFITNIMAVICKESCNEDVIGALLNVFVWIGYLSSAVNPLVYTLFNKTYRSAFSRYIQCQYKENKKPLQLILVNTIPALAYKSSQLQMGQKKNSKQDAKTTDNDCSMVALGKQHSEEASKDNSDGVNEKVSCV

As usually defined, the Ki is a measure of affinity in units of concentration, obtained from inhibition or displacement. A low value points to a stronger hold on the target. For the compound `Cc1c(Cl)ccc2c1N1[C@H](CNC[C@H]1C)C2`, the results for the Ki in test [1], in test [2] and in test [4] were 1.9 nM, 40 nM and 19 nM, respectively. The Efficacy in test [3] was found to be 97%.
`CC(=O)Nc1ccc2c(c1)N1[C@@H](CNC[C@H]1C)C2`: the values for the Ki in test [1], in test [2] and in test [4] were 680 nM, 1100 nM and 960 nM, respectively. The Efficacy in test [3] stood at 24%.
For the compound `Cc1c(Cl)ccc2c1N1CCNC[C@H]1C2`, the values for the Ki in test [1], in test [2] and in test [4] were 1.5 nM, 6.2 nM and 10 nM, respectively. Moreover, in test [3], the Efficacy is 90%.
For `C[C@@H]1CNC[C@H]2Cc3ccc(C(F)(F)F)cc3N21` the same measures were 1.4 nM, 7.5 nM, 11 nM and 94%.
For `Cc1ccc2c(c1C)N1[C@H](CNC[C@H]1C)C2` the same measures were 9.5 nM, 102 nM, 67 nM and 91%.
For `C[C@@H]1CNC[C@H]2Cc3ccc(C#N)cc3N21`, the inhibitory constant (Ki) in test [1] is 3.8 nM; in test [2], 110 nM; in test [4], 90 nM. The compound further came in with an Efficacy in test [3] of 77%.
With `C[C@@H]1CNC[C@@H]2Cc3ccccc3N21` (stereo in doubt; 7) [listing 1 of 2 here], in test [3], the Efficacy is 94%.
With `C[C@H]1CNC[C@@H]2Cc3ccccc3N21`, the Ki in test [1] is 180 nM; in test [2] it was 430 nM; in test [4], 2600 nM. Besides, the Efficacy in test [3] turned out to be 62%.
As for `C[C@@H]1CNC[C@@H]2Cc3ccccc3N21` (stereo in doubt; 7) [listing 2 of 2 here], the inhibition constant Ki was determined as 13 nM in test [1], 55 nM in test [2] and 210 nM in test [4].
For `C[C@@H]1CNC[C@@H]2Cc3ccccc3N21` (stereo in doubt; 8) [listing 1 of 2 here] the same measures were 22 nM, 61 nM and 160 nM.
Take `Cc1c(Cl)ccc2c1N1[C@@H](CNC[C@H]1C)C2`: the figures for the inhibition constant (Ki) in test [1], in test [2] and in test [4] were 0.3 nM, 2.6 nM and 3.2 nM, respectively. This compound yielded an Efficacy in test [3] of 98%.
With `Cc1ccc2c(c1)N1[C@@H](CNC[C@H]1C)C2`, the inhibition constant Ki in test [1] is 1.3 nM; in test [2], 22 nM; in test [4], 21 nM. Besides, the Efficacy in test [3] is 100%.
`C[C@@H]1CNC[C@@H]2Cc3ccccc3N21` (stereo in doubt; 8) [listing 2 of 2 here] returned an Efficacy in test [3] of 87%.
Take `C[C@@H]1CNC[C@H]2Cc3ccccc3N21`: the inhibitory constant (Ki) in test [1] came out at 2.2 nM; in test [2], 1.9 nM; in test [4], 15 nM. Further, the Efficacy in test [3] turned out to be 97%.
For `C[C@@H]1CNC[C@H]2Cc3ccc(CO)cc3N21` the same measures were 34 nM, 290 nM, 250 nM and 97%.
For `Cc1c(Cl)ccc2c1N1CCNC[C@@H]1C2` the same measures were 32 nM, 52 nM, 140 nM and 80%.
As to `Clc1ccc2c(c1)N1CCNCC1C2` (stereo not drawn), the inhibition constant Ki in test [1] came to 31 nM; in test [2] it was 32 nM; in test [4], 53 nM. In test [3], the Efficacy is 99%.
The matching figures for `Cc1ccc2c(c1C)N1[C@@H](CNC[C@H]1C)C2`: 1.7 nM, 34 nM, 13 nM and 96%.
The matching figures for `Cc1cccc2c1N1[C@@H](CNC[C@H]1C)C2`: 2.6 nM, 43 nM, 59 nM and 100%.

The values are drawn from ChEMBL document CHEMBL1142762, “Identification of 4-methyl-1,2,3,4,10,10a-hexahydropyrazino[1,2-a]indoles as 5-HT2C receptor agonists” (Bioorg Med Chem Lett, 2005).
